Data set [1] relates to breast tumor cells (MDA-435). Nature of the data set: MTT assay, roscovitine exposure followed by docetaxel. Conditions: single agent at 100% of its IC50 (roscovitine 15 ug/ml or Tax. […]). Background: Tetrazolium dyes change colour on reduction, which living cells bring about.
Data set [2] has as its system MAXF 857 primary breast cancer xenograft. Conditions: taxotere on day 2, roscovitine on days 0-3 and 7-9 after randomization, or the combination of the two treatments.
Data set [3] can be described thus: toxicities (lethality, body weight change) in the LXFL H460 xenograft study. Type of data set: in vivo, nude mice (NMRI nu/nu). Conditions: single therapy: CYC202 300 mg/kg/d po bd days 0-4, 7-11, 14-18, TXT 20 mg/kg iv days 0, 14; for Median BWC % (day 21): one week after last therapy of docetaxel.
The subject of data set [4] is lung cancer xenograft (LXFL H460). Briefly: human tumour xenograft study, Experiment 2: docetaxel/roscovitine scheduling (LXFL H460). It counts as in vivo, nude mice (NMRI nu/nu). Conditions: for T/C [%] day 28 / T/Copt [%] / dayopt. (day of T/Copt): single therapy: CYC202 300 mg/kg/d po bd days 0-4, 7-11, 14-18, TXT 20 mg/kg iv days 0, 14. (In general: In xenograft studies the graft and the host belong to different species.)

Consider 2 compounds from patent US20050277656A1, “Combination comprising docetaxel and a CDK inhibitor” (Cyclacel Limited, priority 2002, published 2005).

With `CC(=O)O[C@@]12CO[C@@H]1C[C@H](O)[C@@]1(C)C(=O)[C@H](O)C3=C(C)[C@@H](OC(=O)[C@H](O)[C@@H](NC(=O)OC(C)(C)C)c4ccccc4)C[C@@](O)([C@@H](OC(=O)c4ccccc4)[C@H]21)C3(C)C` [docetaxel], in data set [1], the “% Response” value is listed as 40.7%. The “optimal T/C” value in data set [2] amounted to 21%. In addition, in data set [3], the “Lethality n (day)” value was 0/10 and the “Median BWC % (day 21)” value is given as −4.2%. Moreover, the “Tumor growth delay in relation to the vehicle treated control” value in data set [4] (LXFL H460, combination Schedule 1, or docetaxel in single therapy) turned out to be 9 days. For the same compound, in data set [4], the “T/C [%] day 28” value turned out to be 27%, the “T/Copt [%]” value stood at 12.2% and the “dayopt. (day of T/Copt)” value was 10 days. In data set [4] (listed as TXT), the “T/C [%] day 28” value is 27.3%.

In the case of `CC[C@H](CO)Nc1nc(NCc2ccccc2)c2ncn(C(C)C)c2n1` [roscovitine, 6-benzylamino-2-[(R)-1-ethyl-2-hydroxyethylamino]-9-isopropylpurine], in data set [1], the “% Abs” value was 0% and the “% Response” value stood at 43.3%. Further, the “optimal T/C” value in data set [2] is 63%. Moreover, the “Median BWC % (day 21)” value in data set [3] was “+7.1%”. For the same compound, in data set [4], the “T/C [%] day 28” value worked out at 64%, the “T/Copt [%]” value was determined as 64.3% and the “dayopt. (day of T/Copt)” value turned out to be 28 days. Also, in data set [4] (listed as CYC202), the “T/C [%] day 28” value is reported as 64.3%.
